Data from patent publication US10428081B2, “EGFR inhibitor, preparation method and use thereof” (Shanghai Hansoh Biomedical Co., Ltd., priority 2014, dated 2019).
Blank lines part the entries; values can stand above or below the molecule they belong to.

Experiments:
NCI-H1975 cells = experiment: Inhibition of NCI-H1975 cell proliferation (CellTiter-Glo); assay type: cell-based; conditions: for IC50: Homo sapiens, NCI-H1975, 72 h, NCI-H1975 cell proliferation, 72 hours, CellTiter-Glo, read-out: EGFR IC50 (nM) H1975; for Selectivity of wild-type/mutant-type: ratio A431 IC50 / H1975 IC50, cells
A431 cells = experiment: Inhibition of A431 cell proliferation (CellTiter-Glo); assay type: cell-based; conditions: Homo sapiens, A-431, 72 h, read-out: EGFR IC50 (nM) A431
Procedure: 4. Experiment on the Inhibition of A431 Cell Proliferation
In this experiment, the inhibitory effect of the compounds on A431 cell proliferation was tested by a CellTiter-Glo method, and the half maximal inhibitory concentration (IC50) of the compounds on the activity of cell proliferation was determined.
The culture plate was incubated in the incubator for 16 to 24 hours (37° C., 5% CO2).
2) Different concentrations of the test compound in a gradient dilution were added to the cells in the culture plate. The culture plate was incubated in an incubator for 72 hours (37° C., 5% CO2).
3) 50 to 100 μL of CellTiter-Glo reagent was added to each well. Then the culture plate was shaken for 10 minutes, and left to stand at room temperature for 10 minutes.
4) The chemiluminescence signal values of each plate were determined by a microplate reader.
5) The inhibition rates were calculated according to the chemiluminescence signal values. 6) The IC50 of the compound was obtained by curve fitting according to the inhibition rates at different concentrations.

[1] = molecular target: exon 20 T790M mutant-type EGFR enzyme (Homo sapiens, UniProt P00533, T790M); experiment: Enzymologic experiment of T790M mutant-type EGFR (TR-FRET); assay type: biochemical; conditions: for IC50: T790M EGFR enzyme, TR-FRET, ATP 1 to 10 uM; for Selectivity of wild-type/mutant-type: ratio WT IC50 / T790M IC50, enzyme
Summary of the method: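 Compound dilutions preincubated 10 min at room temperature; reaction ended with EDTA, then labeled antibody added for 1 h at room temperature. Inhibition rates derived from TR-FRET fluorescence signal, and IC50 obtained by curve fitting across concentrations.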

wild-type EGFR enzyme = wild-type EGFR enzyme (Homo sapiens, UniProt P00533); experiment: Enzymologic experiment of wild-type (WT) EGFR (TR-FRET); assay type: biochemical; conditions: ATP 0.1 to 5 uM
Summary of the method: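 Wild-type EGFR (0.1 to 1 nM final) preincubated with serially diluted compound for 10 minutes at room temperature; reaction stopped with EDTA, then labelled antibody added for 1 hour at room temperature. TR-FRET signal converted to inhibition rates; IC50 from curve fitting across concentrations.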

Chain of exon 20 T790M mutant-type EGFR enzyme (P00533 25-1210 T790M): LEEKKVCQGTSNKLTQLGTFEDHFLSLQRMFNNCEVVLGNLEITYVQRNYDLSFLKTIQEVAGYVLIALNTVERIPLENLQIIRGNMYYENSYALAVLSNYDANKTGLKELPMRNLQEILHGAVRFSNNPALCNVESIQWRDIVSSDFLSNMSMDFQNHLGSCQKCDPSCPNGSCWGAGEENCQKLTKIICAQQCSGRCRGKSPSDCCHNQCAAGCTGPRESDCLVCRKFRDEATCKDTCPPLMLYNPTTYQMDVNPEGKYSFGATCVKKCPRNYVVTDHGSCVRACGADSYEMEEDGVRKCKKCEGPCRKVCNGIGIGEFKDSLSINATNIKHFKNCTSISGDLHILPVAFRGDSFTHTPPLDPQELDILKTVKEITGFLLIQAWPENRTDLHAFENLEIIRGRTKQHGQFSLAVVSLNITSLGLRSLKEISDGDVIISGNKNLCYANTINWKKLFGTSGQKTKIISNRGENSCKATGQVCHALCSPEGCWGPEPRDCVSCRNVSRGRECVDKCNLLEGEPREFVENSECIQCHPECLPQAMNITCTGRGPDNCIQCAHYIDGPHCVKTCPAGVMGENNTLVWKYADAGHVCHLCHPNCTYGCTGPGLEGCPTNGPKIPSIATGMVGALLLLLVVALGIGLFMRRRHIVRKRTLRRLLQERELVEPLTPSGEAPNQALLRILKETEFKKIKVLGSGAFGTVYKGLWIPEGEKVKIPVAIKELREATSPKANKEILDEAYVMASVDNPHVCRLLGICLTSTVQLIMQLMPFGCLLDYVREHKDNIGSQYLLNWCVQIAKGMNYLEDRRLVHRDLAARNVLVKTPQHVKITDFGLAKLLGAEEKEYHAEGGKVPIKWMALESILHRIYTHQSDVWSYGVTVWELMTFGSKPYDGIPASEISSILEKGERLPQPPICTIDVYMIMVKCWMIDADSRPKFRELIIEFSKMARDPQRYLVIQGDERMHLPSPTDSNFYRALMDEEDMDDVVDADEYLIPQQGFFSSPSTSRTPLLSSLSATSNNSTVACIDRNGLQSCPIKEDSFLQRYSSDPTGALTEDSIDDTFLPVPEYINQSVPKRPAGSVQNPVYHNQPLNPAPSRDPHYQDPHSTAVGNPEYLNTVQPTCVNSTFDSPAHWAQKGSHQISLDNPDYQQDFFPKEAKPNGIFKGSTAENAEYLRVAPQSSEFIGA
Chain of wild-type EGFR enzyme (P00533 25-1210): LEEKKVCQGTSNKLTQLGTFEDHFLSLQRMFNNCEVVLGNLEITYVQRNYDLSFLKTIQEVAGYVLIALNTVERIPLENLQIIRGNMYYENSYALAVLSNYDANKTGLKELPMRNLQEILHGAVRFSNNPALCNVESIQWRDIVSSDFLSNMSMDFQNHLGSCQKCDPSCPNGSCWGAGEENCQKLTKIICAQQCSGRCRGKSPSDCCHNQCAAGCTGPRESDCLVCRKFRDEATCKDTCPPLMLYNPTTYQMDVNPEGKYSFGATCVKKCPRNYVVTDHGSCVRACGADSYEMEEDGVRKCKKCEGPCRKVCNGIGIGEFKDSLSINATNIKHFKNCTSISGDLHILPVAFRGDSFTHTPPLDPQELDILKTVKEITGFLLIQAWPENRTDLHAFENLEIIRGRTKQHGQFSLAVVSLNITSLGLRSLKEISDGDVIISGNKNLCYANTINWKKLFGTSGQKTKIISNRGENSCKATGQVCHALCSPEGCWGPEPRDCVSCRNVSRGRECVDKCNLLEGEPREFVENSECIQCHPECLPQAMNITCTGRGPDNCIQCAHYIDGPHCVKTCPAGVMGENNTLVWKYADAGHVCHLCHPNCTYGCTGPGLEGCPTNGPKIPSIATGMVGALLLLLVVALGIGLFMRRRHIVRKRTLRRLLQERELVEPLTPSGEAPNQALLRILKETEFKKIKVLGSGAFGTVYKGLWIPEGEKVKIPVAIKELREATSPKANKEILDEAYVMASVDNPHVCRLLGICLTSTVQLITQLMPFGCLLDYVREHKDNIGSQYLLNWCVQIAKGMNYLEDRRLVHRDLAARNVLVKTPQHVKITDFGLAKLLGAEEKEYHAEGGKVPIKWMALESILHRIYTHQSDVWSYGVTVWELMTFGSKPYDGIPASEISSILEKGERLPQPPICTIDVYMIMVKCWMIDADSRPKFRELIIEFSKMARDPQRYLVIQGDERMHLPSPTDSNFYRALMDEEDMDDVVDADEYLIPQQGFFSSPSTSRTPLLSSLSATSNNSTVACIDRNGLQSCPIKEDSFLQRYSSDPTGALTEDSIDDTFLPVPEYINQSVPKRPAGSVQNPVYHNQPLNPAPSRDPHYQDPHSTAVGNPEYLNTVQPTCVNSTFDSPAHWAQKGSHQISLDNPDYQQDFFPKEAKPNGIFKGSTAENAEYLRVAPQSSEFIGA

Structure (SMILES): C=CC(=O)Nc1cc(Nc2nccc(-n3nc(C)c4cc(C#N)ccc43)n2)c(OC)cc1N(C)CCN(C)C [Example 56, N-(5-((4-(5-cyano-3-methyl-1H-indazol-1-yl)pyrimidin-2-yl)amino)-2-((2-(dimethylamino)ethyl)(methyl)amino)-4-methoxyphenyl)acrylamide]
- IC50 (NCI-H1975 cells): 7.08 nM
- Selectivity of wild-type/mutant-type (NCI-H1975 cells): 97.25
- IC50 (A431 cells): 688 nM
- IC50 [1]: 1.54 nM
- Selectivity of wild-type/mutant-type [1]: 10.56
- IC50 (wild-type EGFR enzyme): 16.3 nM

Structure (SMILES): C=CC(=O)Nc1cc(Nc2nccc(-n3cnc4ccc(OC)cc43)n2)c(OC)cc1N(C)CCN(C)C [Example 60, N-(2-((2-(dimethylamino)ethyl)(methyl)amino)-4-methoxy-5-((4-(6-methoxy-1H-benzo[d]imidazol-1-yl)pyrimidin-2-yl)amino)phenyl)acrylamide]
- IC50 (NCI-H1975 cells): 2.94 nM
- Selectivity of wild-type/mutant-type (NCI-H1975 cells): 50.82
- IC50 (A431 cells): 149 nM
- IC50 [1]: 0.33 nM
- Selectivity of wild-type/mutant-type [1]: 6.16
- IC50 (wild-type EGFR enzyme): 2.03 nM

Structure (SMILES): C=CC(=O)Nc1cc(Nc2nccc(-c3cn(C)c4ccc(F)c(F)c34)n2)c(OC)cc1N(C)CCN(C)C [Example 90, N-(5-((4-(4,5-difluoro-1-methyl-1H-indol-3-yl)pyrimidin-2-yl)amino)-2-((2-(dimethylamino)ethyl)(methyl)amino)-4-methoxyphenyl)acrylamide]
- IC50 (NCI-H1975 cells): 6.32 nM
- Selectivity of wild-type/mutant-type (NCI-H1975 cells): 16.72
- IC50 (A431 cells): 106 nM
- IC50 [1]: 1.14 nM
- Selectivity of wild-type/mutant-type [1]: 4.31
- IC50 (wild-type EGFR enzyme): 4.91 nM

Structure (SMILES): C=CC(=O)Nc1cc(Nc2nccc(-c3c[nH]c4c(C5CC5)cccc34)n2)c(OC)cc1N(C)CCN(C)C [Example 92, N-(5-((4-(7-cyclopropyl-1H-indol-3-yl)pyrimidin-2-yl)amino)-2-((2-(dimethylamino)ethyl)(methyl)amino)-4-methoxyphenyl)acrylamide]
- IC50 (NCI-H1975 cells): 1.95 nM
- Selectivity of wild-type/mutant-type (NCI-H1975 cells): 4.73
- IC50 (A431 cells): 9.22 nM
- IC50 [1]: 0.16 nM
- Selectivity of wild-type/mutant-type [1]: 2.5
- IC50 (wild-type EGFR enzyme): 0.4 nM

Structure (SMILES): C=CC(=O)Nc1cc(Nc2nccc(-c3c[nH]c4c(OC)cccc34)n2)c(OC)cc1N(C)CCN(C)C [Example 94, N-(2-((2-(dimethylamino)ethyl)(methyl)amino)-4-methoxy-5-((4-(7-methoxy-1H-indol-3-yl)pyrimidin-2-yl)amino)phenyl)acrylamide]
- IC50 (NCI-H1975 cells): 3.91 nM
- Selectivity of wild-type/mutant-type (NCI-H1975 cells): 9.93
- IC50 (A431 cells): 38.8 nM
- IC50 [1]: 0.71 nM
- Selectivity of wild-type/mutant-type [1]: 1.771
- IC50 (wild-type EGFR enzyme): 1.26 nM

Structure (SMILES): C=CC(=O)Nc1cc(Nc2nccc(-c3c[nH]c4cc(OC)ccc34)n2)c(OC)cc1N(C)CCN(C)C [Example 97, N-(2-((2-(dimethylamino)ethyl)(methyl)amino)-4-methoxy-5-((4-(6-methoxy-1H-indol-3-yl)pyrimidin-2-yl)amino)phenyl)acrylamide]
- IC50 (NCI-H1975 cells): 1.28 nM
- Selectivity of wild-type/mutant-type (NCI-H1975 cells): 109.92
- IC50 (A431 cells): 141 nM
- IC50 [1]: 0.18 nM
- Selectivity of wild-type/mutant-type [1]: 2.78
- IC50 (wild-type EGFR enzyme): 0.5 nM

Structure (SMILES): C=CC(=O)Nc1cc(Nc2ncc(Cl)c(-c3cn(C)c4cc(OC)ccc34)n2)c(OC)cc1N(C)CCN(C)C [Example 98, N-(5-((5-chloro-4-(6-methoxy-1-methyl-1H-indol-3-yl)pyrimidin-2-yl)amino)-2-((2-(dimethylamino)ethyl)(methyl)amino)-4-methoxyphenyl)acrylamide]
- IC50 (NCI-H1975 cells): 2.92 nM
- Selectivity of wild-type/mutant-type (NCI-H1975 cells): 52.71
- IC50 (A431 cells): 154 nM
- IC50 [1]: 0.2 nM
- Selectivity of wild-type/mutant-type [1]: 5.00
- IC50 (wild-type EGFR enzyme): 1 nM

Structure (SMILES): C=CC(=O)Nc1cc(Nc2nccc(-c3cn(S(=O)(=O)N(C)C)c4ccccc34)n2)c(OC)cc1N(C)CCN(CC)CC [Example 103, N-(2-((2-(diethylamino)ethyl)(methyl)amino)-5-((4-(1-(N,N-dimethylsulfamoyl)-1H-indol-3-yl)pyrimidin-2-yl)amino)-4-methoxyphenyl)acrylamide]
- IC50 (NCI-H1975 cells): 1.95 nM
- Selectivity of wild-type/mutant-type (NCI-H1975 cells): 50.55
- IC50 (A431 cells): 98.6 nM
- IC50 [1]: 0.24 nM
- Selectivity of wild-type/mutant-type [1]: 6.71
- IC50 (wild-type EGFR enzyme): 1.61 nM

More lines, in order of falling IC50 (NCI-H1975 cells), values ahead:

- IC50 (NCI-H1975 cells): 25.9 nM
- IC50 (A431 cells): 558 nM
- IC50 [1]: 2.25 nM
- Selectivity of wild-type/mutant-type [1]: 6.54
- IC50 (wild-type EGFR enzyme): 14.7 nM
Structure (SMILES): C=CC(=O)Nc1cc(Nc2nccc(-c3cn(C)c4c(C5CC5)cccc34)n2)c(OC)cc1N(C)CCN(C)C [Example 91, N-(5-((4-(7-cyclopropyl-1-methyl-1H-indol-3-yl)pyrimidin-2-yl)amino)-2-((2-(dimethylamino)ethyl)(methyl)amino)-4-methoxyphenyl)acrylamide]
- Selectivity of wild-type/mutant-type (NCI-H1975 cells): 21.49

- IC50 (NCI-H1975 cells): 17.5 nM
- IC50 (A431 cells): 324 nM
- IC50 [1]: 1.57 nM
- Selectivity of wild-type/mutant-type [1]: 5.67
- IC50 (wild-type EGFR enzyme): 8.9 nM
Structure (SMILES): C=CC(=O)Nc1cc(Nc2nccc(-c3cn(C)c4cc(C=C)ccc34)n2)c(OC)cc1N(C)CCN(C)C [Example 96, N-(2-((2-(dimethylamino)ethyl)(methyl)amino)-4-methoxy-5-((4-(1-methyl-6-vinyl-1H-indol-3-yl)pyrimidin-2-yl)amino)phenyl)acrylamide]
- Selectivity of wild-type/mutant-type (NCI-H1975 cells): 18.51

- IC50 (NCI-H1975 cells): 3.73 nM
- IC50 (A431 cells): 321 nM
- IC50 [1]: 1.63 nM
- Selectivity of wild-type/mutant-type [1]: 231.9
- IC50 (wild-type EGFR enzyme): 378 nM
Structure (SMILES): C=CC(=O)Nc1cc(Nc2ncc(C(F)(F)F)c(-n3cnc4cc(OC)ccc43)n2)c(OC)cc1N(C)CCN(C)C [Example 67, N-(2-((2-(dimethylamino)ethyl)(methyl)amino)-4-methoxy-5-((4-(5-methoxy-1H-benzo[d]imidazol-1-yl)-5-(trifluoromethyl)pyrimidin-2-yl)amino)phenyl)acrylamide]
- Selectivity of wild-type/mutant-type (NCI-H1975 cells): 85.95

- IC50 (NCI-H1975 cells): 3.12 nM
- IC50 (A431 cells): 887 nM
- IC50 [1]: 0.26 nM
- Selectivity of wild-type/mutant-type [1]: 2.38
- IC50 (wild-type EGFR enzyme): 0.62 nM
Structure (SMILES): C=CC(=O)Nc1cc(Nc2nccc(-n3ncc4cc(OCC)ccc43)n2)c(OC)cc1N(C)CCN(C)C [Example 105, N-(2-((2-(dimethylamino)ethyl)(methyl)amino)-5-((4-(5-ethoxy-1H-indazol-1-yl)pyrimidin-2-yl)amino)-4-methoxyphenyl)acrylamide]
- Selectivity of wild-type/mutant-type (NCI-H1975 cells): 284.29

- IC50 (NCI-H1975 cells): 2.08 nM
- IC50 (A431 cells): 36.5 nM
- IC50 [1]: 0.21 nM
- Selectivity of wild-type/mutant-type [1]: 23.86
- IC50 (wild-type EGFR enzyme): 5.01 nM
Structure (SMILES): C=CC(=O)Nc1cc(Nc2ncc(C(F)(F)F)c(-c3cn(C)c4cc(OC)ccc34)n2)c(OC)cc1N(C)CCN(C)C [Example 99, N-(2-((2-(dimethylamino)ethyl)(methyl)amino)-4-methoxy-5-((4-(6-methoxy-1-methyl-1H-indol-3-yl)-5-(trifluoromethyl)pyrimidin-2-yl)amino)phenyl)acrylamide]
- Selectivity of wild-type/mutant-type (NCI-H1975 cells): 17.57

- IC50 (NCI-H1975 cells): 1.87 nM
- IC50 (A431 cells): 71 nM
- IC50 [1]: 0.36 nM
- Selectivity of wild-type/mutant-type [1]: 41.53
- IC50 (wild-type EGFR enzyme): 14.9 nM
Structure (SMILES): C=CC(=O)Nc1cc(Nc2ncc(Cl)c(-n3cnc4cc(OC)ccc43)n2)c(OC)cc1N(C)CCN(C)C [Example 63, N-(5-((5-chloro-4-(5-methoxy-1H-benzo[d]imidazol-1-yl)pyrimidin-2-yl)amino)-2-((2-(dimethylamino)ethyl)(methyl)amino)-4-methoxyphenyl)acrylamide]
- Selectivity of wild-type/mutant-type (NCI-H1975 cells): 37.97
